Assay results as given in patent US20220175710A1, “COMBINATION THERAPY” (Akershus Universitetssykehus HF, priority 2019, published 2022).
Entries after “also recorded” stand apart in the source; their conditions may differ.

Tests used:
Type in all cases: cell-based, human
CHRNA7 [1] = test: Quantitative PCR of CHRNA7 transcription in THP-1 monocyte cultures; settings: for CHRNA7 ("N") transcription relative to TPA-treated unstimulated condition / N/M ratio (CHRNA7/CHRFAM7A transcription): FIG. 7; for CHRNA7 ("N") transcription relative to TPA-treated unstimulated condition: overnight; for CHRNA7 transcription (quantitative PCR): FIG. 6
Experimental: (§1) The human acute monocytic leukemia cell line THP-1 (ATCC TIB-202, ATCC, US) was cultured in RPMI 1640 with GlutaMax (Gibco, Life Technologies, UK) supplemented with 10% fetal bovine serum (FBS), (Gibco, Life Technologies, UK) and 1% Antibiotic/Antimycotic (Gibco, Life Technologies, UK) at 37° C. and 5% CO2.
(§2) 1,6 million cells were seeded in each well in 6-well plates and differentiated to macrophages by a 48 h treatment of 100 nM TPA (12-O-tetradecanoylphorbol-13-acetate), (Cell Signaling Technology, US). Cells were treated with 100 μM Docosahexaenoic acid (DHA), (Sigma Aldrich, Germany), 10 ng/ul Amyloid beta 1-40 (Aβ), (ApexBio, US), 10 μM PNU-120596, (Sigma Aldrich, Germany), 40 μM Galanthamine hydrobromide, (Sigma Aldrich, Germany) and combinations overnight (approximately 20 h).
(§3) Total RNA was isolated with the RNeasy Plus Mini kit (Qiagen) using genomic DNA eliminator columns. THP-1 cells were lysed directly in the wells using 350 μl RLT Plus according to the protocol and stored at −80° C. The frozen lysate was incubated at 37° C. in a water bath until completely thawed and homogenized using QIAshredder (Qiagen) spin columns. RNA was eluted in 30 μl RNase free water and the quantity assessed using the NanoDrop ND-1000 Spectrophotometer (NanoDrop Technologies).
(§4) 1 μg total RNA was reverse transcribed using the QuantiTect cDNA Reverse Transcription Kit (Qiagen). Due to low CHRNA7 expression (Cq values>38, Table 2), we increased RNA input to 2 μg, changed the reverse transcription kit to High Capacity Reverse Transcription Kit (Life Technologies AS) and the cDNA was preamplified using TaqMan PreAmp Master Mix (Life Technologies AS), running 18 cycles and diluted 1:20 (FIG. 7). We then obtained Cq values<27 (average 25,4) for CHRNA7 and <20 (average 18,6 for CHRFAM7A). Absolute quantification was run using CHRFAM7A and CHRNA7 synthetic oligonucleotides standards (GeneArt, Life Technologies AS). 2.5 ul cDNA diluted 1:20 after preamplification was applied per qPCR reaction using TaqMan gene expression assays CHRFAM7A (Hs04189909_m1) and CHRNA7 (Hs01063372_m1) (Thermo Fisher) and TaqMan Gene expression Master Mix (Life Technologies AS) in a total volume of 10 μl and run in triplicates on Quant Studio 7 (Applied Biosystems).

CHRFAM7A [2] = test: Quantitative PCR of CHRFAM7A transcription in THP-1 monocyte cultures; settings: for CHRFAM7A ("M") transcription relative to TPA-treated unstimulated condition: FIG. 7, overnight; for CHRFAM7A transcription (quantitative PCR): FIG. 6
Experimental: as §1, §2, §3, §4

CHRNA7 [3] = test: Western blot of CHRNA7 (56 kDa band) in TPA differentiated THP-1 cells; settings: FIG. 5; co-stimulation with DHA and Aβ1-40 peptide, compared with DHA alone
THP-1 cells = test: IP LC-MS of Abeta-40 degradation in monocytic THP-1 cells
Experimental: Firstly, a cell model was used to study the effect of the omega-3 fatty acid DHA on degradation of amyloid beta. Here, the THP-1 cells were incubated with and without DHA (1 μM), and subsequently with Abeta (1-40 aa, 10 ng/μL). Secondly, monocyte from healthy controls (NC) and patients with neurodegenerative diseases (AD) were isolated. In both these cases, the cells were lysed and IP LC-MS was performed.
In FIG. 1, each bar in the graph represents the accumulated cleavage sites on each position along the 40 amino acids in Abeta 1-40. Thus the bar contains peptides of various lengths, but with the same start or end amino acid. Three parallels were analysed for each condition/sample group, which refers to the triplicate incubations of each condition, with or without DHA.
Monocytic THP-1 cells were used as a model system, and IP LC-MS as analytical approach to investigate the effect of DHA on monocytic Abeta-40 processing.
A THP-1 cell line culture was matured and differentiated, split to be control and stimulated parallels and this was replicated to be performed a total of 7 times (controls n=7; DHA stimulated n=7). Test cells were incubated with DHA overnight, and all samples were incubated with Abeta-40 for 1 to 2 hours. The cells were lysed by freeze-thaw cycles prior to immunoprecipitation performed with two commercial and one in-house antibody. […]

CHRNA7 [4] = test: Western blot of CHRNA7 (56 kDa band) in TPA differentiated THP-1 cells; settings: for CHRNA7 (56 kDa protein) expression, conclusion in words: Table 1 / FIG. 4, both experiments
Experimental: The cellular samples were tested for the presence of the α7 subtype of the nicotinic acetylcholine receptor (nAChR) by Western blot analysis on THP-1 cells that were incubated with and without Abeta1-42 and with and without DHA. The purpose of this was to show monocytic membrane expression of nAChR and to explore altered regulation of this receptor in response to DHA stimulation.
The THP-1 cells were seeded in 6-well plates with 2 mL per well at a concentration of 830 000 cells/mL (experiment 1) or 860 000 cells/ml (experiment 2), and differentiated using 100 nM TPA (12-O-Tetradecanoylphorbol-13-Acetate) for 24 hours. For the experiments, DHA was added to give a concentration of 100 uM (experiment 1) or 10 uM and 100 uM (experiment 2), and Aβ42 was added at a final concentration of 2.5 ng/ul.
The cells were incubated overnight (18 hours). Each DHA experiment had parallels of cells not incubated with DHA. After incubation the cells were kept cold, scraped loose and transferred to 15-ml tubes. Cells were washed twice with cold PBS before resuspended in 100 ul PBS and transferred to an Eppendorf tube. The cells were lysed through five freeze thaw cycles, and total protein in each sample was determined by the BCA protein assay. Samples were stored at −80° C. upon analysis.
Western blot analysis was performed cat no 21379-1-AP, Proteintech, using 1:1000 using dilution. The secondary antibody was a goat anti-rabbit IgG-HRP (cat no 4030-05, Southern Biotech) diluted 1:2000. Solvents for dilutions were as described below.
Samples were dissolved in 4× Laemmli buffer w/ b-ME (BioRad and, respectively) denatured at 95° C. for 5 min, and a quantity of 12 μg protein/sample/well was loaded to the gel. A volume of 10 uL of Precision Plus protein Dual Xtra Color Standards (BioRad) was used for molecular weight estimation. The samples were resolved in 8-16% gradient SDS-PAGE (Criterion TGX precast gels, BioRad) and immunoblotted onto PVDF membranes (GE Healthcare). Membranes were blocked in 5% non-fat dried milk in 1× Tris Buffered Saline containing 0.1% Tween20 (1×TBS-T) (BioRad) at room temperature for 1 h and incubated overnight at 4° C. with primary antibodies in 1×TBS-T with 1% non-fat dried milk. After washing, the membranes were incubated with secondary antibody in 5% non-fat dried milk in 1×TBS-T for 1 h at room temperature. The blots were visualized by ECL Plus Western blotting detection system (GE Healthcare) according to the supplier's instructions. Membranes were visualized on the LAS-3000 mini (Fujifilm Corporation) and band intensities were quantified using MultiGauge analysis software (Fujifilm Corporation).
Bands presented are at the predicted MW of the nAChR (56 kDa).
(§5) DHA: Docosahexaenoic acid, Aβ1-40 peptides: the conventional amyloid beta peptide containing 40 amino acids.

CHRFAM7A [5] = test: Western blot of CHRFAM7A in differentiated THP-1 cells; settings: FIG. 5
Description: as §5

[6] = stimulus as labelled, nothing else added, 100 μM DHA, 10 μM PNU-120596, 40 μM Galanthamine hydrobromide, 10 ng/ul Aβ 1-40
[7] = co-stimulation with DHA and Aβ1-40 peptide, compared with DHA alone
[8] = stimulus as labelled plus Amyloid β 1-40 10 ng/ul

Amyloid 13: the conventional amyloid beta peptide containing 40 amino acids
CHRNA7 ("N") transcription relative to TPA-treated unstimulated condition (CHRNA7 [1]; [6]): reduced | CHRFAM7A ("M") transcription relative to TPA-treated unstimulated condition (CHRFAM7A [2]; [6]): reduced

COc1cc(OC)c(NC(=O)Nc2cc(C)on2)cc1Cl [PNU-120596]
CHRNA7 ("N") transcription relative to TPA-treated unstimulated condition (CHRNA7 [1]; [6]): smaller changes | CHRFAM7A ("M") transcription relative to TPA-treated unstimulated condition (CHRFAM7A [2]; [6]): smaller changes

CC/C=C\C/C=C\C/C=C\C/C=C\C/C=C\C/C=C\CCC(=O)O [DHA, (4Z, 7Z, 10Z, 13Z, 16Z, 19Z)-4,7, 10, 13, 16, 19-docosahexaenoic acid]
CHRNA7 expression (Western blot) (CHRNA7 [3]): more pronounced | Abeta cut pattern (enzymatic activities), DHA versus no DHA (THP-1 cells; DHA 1 μM, then Abeta 1-40 10 ng/μL, FIG. 1): differing enzymatic activities | average ratio of catabolic peptides in DHA versus control samples (THP-1 cells; DHA overnight, then Abeta-40 for 1 to 2 hours, controls n=7, DHA stimulated n=7, semi-quantitative): 1.3 (12% RSD) | CHRNA7 transcription (quantitative PCR) (CHRNA7 [1]; DHA alone): increase | CHRNA7 transcription (quantitative PCR) (CHRNA7 [1]; [7]): more pronounced | N/M ratio (CHRNA7/CHRFAM7A transcription) (CHRNA7 [1]; [8]): increased; also recorded: higher | CHRNA7 ("N") transcription relative to TPA-treated unstimulated condition (CHRNA7 [1]; [8]): unaltered; also recorded: increases | N/M ratio (CHRNA7/CHRFAM7A transcription) (CHRNA7 [1]; stimulus as labelled, no Amyloid β added): increased | CHRNA7 ("N") transcription relative to TPA-treated unstimulated condition (CHRNA7 [1]; [6]): stable | CHRFAM7A transcription (quantitative PCR) (CHRFAM7A [2]; DHA alone): decrease | CHRFAM7A transcription (quantitative PCR) (CHRFAM7A [2]; [7]): more pronounced | CHRFAM7A ("M") transcription relative to TPA-treated unstimulated condition (CHRFAM7A [2]; [8]): reduces | CHRFAM7A ("M") transcription relative to TPA-treated unstimulated condition (CHRFAM7A [2]; [6]): reduced | ~56 kDa Band signal intensity (CHRNA7 [4]; Exp 1, 100 uM Dha alone, TPA differentiated THP-1, 18 hours): 3.5E+06 | ~56 kDa Band signal intensity (CHRNA7 [4]; Exp 1, Ab1-42 (2.5 ng/ul) + 100 uM Dha, 18 hours): 3.0E+06 | ~56 kDa Band signal intensity (CHRNA7 [4]; Exp 2, Ab1-42 (2.5 ng/ul) + 10 uM Dha, 18 hours): 2.6E+06 | ~56 kDa Band signal intensity (CHRNA7 [4]; Exp 2, Ab1-42 (2.5 ng/ul) + 100 uM Dha, 18 hours): 2.7E+06 | CHRNA7 expression (Western blot) (CHRNA7 [4]; FIG. 5, DHA alone): increase | CHRNA7 (56 kDa protein) expression, conclusion in words (CHRNA7 [4]): upregulation | CHRFAM7A expression (Western blot) (CHRFAM7A [5]; DHA alone): decrease | CHRFAM7A expression (Western blot) (CHRFAM7A [5]; [7]): more pronounced

Ab1-42: the conventional amyloid beta peptide containing 42 amino acids
~56 kDa Band signal intensity (CHRNA7 [4]; Exp 1, Ab1-42 only, 2.5 ng/ul, 18 hours): 1.7E+06 | ~56 kDa Band signal intensity (CHRNA7 [4]; Exp 2, Ab1-42 only, 2.5 ng/ul, 18 hours): 2.1E+06 | CHRNA7 (56 kDa protein) expression, conclusion in words (CHRNA7 [4]): lower expression
